In patent publication US6348476B1, “Pharmaceutical combination preparation of an inhibitor of the sodium/hydrogen exchanger and a medicament for the treatment of cardiovascular diseases” (Aventis Pharma Deutschland GmbH, priority 1997, dated 2002):

System: experimental cardiac infarct in rats
Assay: experimental cardiac infarct in rats: coronary artery closed for one hour, reperfused for two hours, size of infarct determined
Type: in vivo
Settings: % of the risk area, mean±S.E.M., control 63.4±4.3%
Procedure: Male rats having a body weight of 280 to 410 g were classed into four groups and anaesthetized. The thorax was opened close to the sternum, a silk thread (Ethicon^R; 1.0 metric, 5-0) was placed around left coronary artery and the two loose ends of the thread were pulled through a small plastic tube.
For administration of substance, a catheter was placed into the left jugular vein. The systemic blood pressure was recorded in the left carotid artery using a pressure recorder (Combitrans^R, B. Braun Melsungen AG) and the ECG was registered using subcutaneous electrodes. After digital conversion, the data were registered in a computer and the ECG was evaluated in accordance with the guidelines of the Lambeth Convention (6. Walker M J A, Curtis M J, Hearse D J, Campbell R W F, Janse M J, Yellon D M, Cobbe S M, Cokes S J, Harness J B, Harron D W G, Higgins S J, Julian D G, Lab M J, Manning A S, Northover B J, Parraft J R, Riemersma R A, Rieva E, Russell D G, Sheridan D J, Winslow E, Woodward B: The Lambeth convention: Guidelines for the study of arrhythmias in ischemia, infarction and reperfusion. Cardiovasx. Res 1988; 22: 447-455).
Hoe 642 was dissolved in doubly distilled water and R56865 in tartaric acid (0.6%), dilution was carried out using doubly distilled water, and 4% of mannitol were added. […]

SMILES | size of infarct (10 mg/kg of body weight of Hoe 642 intravenously 5 min before occlusion, n=7) | size of infarct (3 mg/kg of body weight of R56865 intravenously 5 min before occlusion, n=8)
CC(C)c1ccc(C(=O)N=C(N)N)cc1S(C)(=O)=O.CS(=O)(=O)O [Hoe 642, cariporide] | 33.2±3.7% | –
CN(c1nc2ccccc2s1)C1CCN(CCCCOc2ccc(F)cc2)CC1 [R56865, N-[1-[4-(4-fluorophenoxy)butyl]-4-piperdinyl]-N-methyl-2-benzothiazolamine] | – | 38.9±3.1%
